{"source": "PubChem BioAssay AID2060900", "about": "(Molecular Pharmacology Branch, DTP, NCI, 2025);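 note: compound exposure lasted seven days before the viability read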;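 for viability, T/C: spheroids also contain HUVEC endothelial cells and mesenchymal stem cells as stroma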", "tested_on": "521955-158-R2-J5-PDC complex spheroids, viability", "assay": "Anticancer human tumor 521955-158-R2-J5-PDC patient-derived pancreatic carcinoma cell line growth inhibition [RAS]", "details": "for IC50: curve of first compound; for viability, T/C: stronger effect = lower value", "in_short": "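Multi-cell-type spheroids: tumor cells plus HUVEC endothelial cells and mesenchymal stem cells. RAS-pathway inhibitors were combined with targeted agents, each dosed in half-log steps down from clinical Cmax, or from 10 microM when Cmax was unknown.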", "key": {"[1]": {"details": "second compound 0.00316 µM, first compound 0.0316 µM"}, "[2]": {"details": "second compound 0.00316 µM, first compound 0.1 µM"}, "[3]": {"details": "second compound 0.01 µM, first compound 0.0316 µM"}, "[4]": {"details": "second compound 0.01 µM, first compound 0.1 µM"}, "[5]": {"details": "second compound 0.0316 µM, first compound 0.0316 µM"}, "[6]": {"details": "second compound 0.0316 µM, first compound 0.1 µM"}, "[7]": {"details": "second compound 0.1 µM, first compound 0.0316 µM"}, "[8]": {"details": "second compound 0.1 µM, first compound 0.1 µM"}, "[9]": {"details": "second compound 0.316 µM, first compound 0.0316 µM"}, "[10]": {"details": "second compound 0.316 µM, first compound 0.1 µM"}, "[11]": {"details": "second compound 1 µM, first compound 0.0316 µM"}, "[12]": {"details": "second compound 1 µM, first compound 0.1 µM"}}, "data": [{"smiles": "CC(C)n1nc(-c2ccc3oc(N)nc3c2)c2c(N)ncnc21", "note": "+ C=CC(=O)N1CCN(c2nc(OCC3CCCN3C)nc3c(F)c(-c4nc(N)cc(C)c4C(F)(F)F)c(Cl)cc23)C(C)C1", "values": [{"measurement": "IC50", "setting": "second compound 0.00316 µM", "result": 25.5, "unit": "nM"}, {"measurement": "IC50", "setting": "second compound 0.01 µM", "result": 31.2, "unit": "nM"}, {"measurement": "IC50", "setting": "second compound 0.0316 µM", "result": 25.7, "unit": "nM"}, {"measurement": "IC50", "setting": "second compound 0.1 µM", "result": 26.3, "unit": "nM"}, {"measurement": "IC50", "setting": "second compound 0.316 µM", "result": 22.2, "unit": "nM"}, {"measurement": "IC50", "setting": "second compound 1 µM", "result": 27.3, "unit": "nM"}, {"measurement": "viability, T/C", "setting": "second compound 0.00316 µM, first compound 0.000316 µM", "result": 103, "unit": "%"}, {"measurement": "viability, T/C", "setting": "second compound 0.00316 µM, first compound 0.001 µM", "result": 77.8, "unit": "%"}, {"measurement": "viability, T/C", "setting": "second compound 0.00316 µM, first compound 0.00316 µM", "result": 95.7, "unit": "%"}, {"measurement": "viability, T/C", "setting": "second compound 0.00316 µM, first compound 0.01 µM", "result": 79.1, "unit": "%"}, {"measurement": "viability, T/C", "setting": "[1]", "result": 43.5, "unit": "%"}, {"measurement": "viability, T/C", "setting": "[2]", "result": 34.5, "unit": "%"}, {"measurement": "viability, T/C", "setting": "second compound 0.01 µM, first compound 0.000316 µM", "result": 93.8, "unit": "%"}, {"measurement": "viability, T/C", "setting": "second compound 0.01 µM, first compound 0.001 µM", "result": 113, "unit": "%"}, {"measurement": "viability, T/C", "setting": "second compound 0.01 µM, first compound 0.00316 µM", "result": 95.9, "unit": "%"}, {"measurement": "viability, T/C", "setting": "second compound 0.01 µM, first compound 0.01 µM", "result": 88, "unit": "%"}, {"measurement": "viability, T/C", "setting": "[3]", "result": 49.3, "unit": "%"}, {"measurement": "viability, T/C", "setting": "[4]", "result": 29.5, "unit": "%"}, {"measurement": "viability, T/C", "setting": "second compound 0.0316 µM, first compound 0.000316 µM", "result": 76, "unit": "%"}, {"measurement": "viability, T/C", "setting": "second compound 0.0316 µM, first compound 0.001 µM", "result": 134, "unit": "%"}, {"measurement": "viability, T/C", "setting": "second compound 0.0316 µM, first compound 0.00316 µM", "result": 87.1, "unit": "%"}, {"measurement": "viability, T/C", "setting": "second compound 0.0316 µM, first compound 0.01 µM", "result": 93.7, "unit": "%"}, {"measurement": "viability, T/C", "setting": "[5]", "result": 40.5, "unit": "%"}, {"measurement": "viability, T/C", "setting": "[6]", "result": 29.7, "unit": "%"}, {"measurement": "viability, T/C", "setting": "second compound 0.1 µM, first compound 0.000316 µM", "result": 141, "unit": "%"}, {"measurement": "viability, T/C", "setting": "second compound 0.1 µM, first compound 0.001 µM", "result": 141, "unit": "%"}, {"measurement": "viability, T/C", "setting": "second compound 0.1 µM, first compound 0.00316 µM", "result": 109, "unit": "%"}, {"measurement": "viability, T/C", "setting": "second compound 0.1 µM, first compound 0.01 µM", "result": 79.7, "unit": "%"}, {"measurement": "viability, T/C", "setting": "[7]", "result": 42.6, "unit": "%"}, {"measurement": "viability, T/C", "setting": "[8]", "result": 31.3, "unit": "%"}, {"measurement": "viability, T/C", "setting": "second compound 0.316 µM, first compound 0.000316 µM", "result": 141, "unit": "%"}, {"measurement": "viability, T/C", "setting": "second compound 0.316 µM, first compound 0.001 µM", "result": 134, "unit": "%"}, {"measurement": "viability, T/C", "setting": "second compound 0.316 µM, first compound 0.00316 µM", "result": 91.3, "unit": "%"}, {"measurement": "viability, T/C", "setting": "second compound 0.316 µM, first compound 0.01 µM", "result": 68.9, "unit": "%"}, {"measurement": "viability, T/C", "setting": "[9]", "result": 42.9, "unit": "%"}, {"measurement": "viability, T/C", "setting": "[10]", "result": 33.4, "unit": "%"}, {"measurement": "viability, T/C", "setting": "second compound 1 µM, first compound 0.000316 µM", "result": 149, "unit": "%"}, {"measurement": "viability, T/C", "setting": "second compound 1 µM, first compound 0.001 µM", "result": 90.5, "unit": "%"}, {"measurement": "viability, T/C", "setting": "second compound 1 µM, first compound 0.00316 µM", "result": 87.6, "unit": "%"}, {"measurement": "viability, T/C", "setting": "second compound 1 µM, first compound 0.01 µM", "result": 79.2, "unit": "%"}, {"measurement": "viability, T/C", "setting": "[11]", "result": 42.4, "unit": "%"}, {"measurement": "viability, T/C", "setting": "[12]", "result": 28.8, "unit": "%"}]}, {"smiles": "C[C@@H](NC(=O)c1ncnc(N)c1Cl)c1ncc(C(=O)Nc2cc(C(F)(F)F)c(Cl)cn2)s1", "note": "+ C=CC(=O)N1CCN(c2nc(OCC3CCCN3C)nc3c(F)c(-c4nc(N)cc(C)c4C(F)(F)F)c(Cl)cc23)C(C)C1", "values": [{"measurement": "IC50", "setting": "second compound 0.00316 µM", "result": "> 10000", "unit": "nM"}, {"measurement": "IC50", "setting": "second compound 0.01 µM", "result": "> 10000", "unit": "nM"}, {"measurement": "IC50", "setting": "second compound 0.0316 µM", "result": "> 10000", "unit": "nM"}, {"measurement": "IC50", "setting": "second compound 0.1 µM", "result": "> 10000", "unit": "nM"}, {"measurement": "IC50", "setting": "second compound 0.316 µM", "result": "> 10000", "unit": "nM"}, {"measurement": "IC50", "setting": "second compound 1 µM", "result": 6750, "unit": "nM"}, {"measurement": "viability, T/C", "setting": "[1]", "result": 105, "unit": "%"}, {"measurement": "viability, T/C", "setting": "[2]", "result": 90.8, "unit": "%"}, {"measurement": "viability, T/C", "setting": "second compound 0.00316 µM, first compound 0.316 µM", "result": 103, "unit": "%"}, {"measurement": "viability, T/C", "setting": "second compound 0.00316 µM, first compound 1 µM", "result": 103, "unit": "%"}, {"measurement": "viability, T/C", "setting": "second compound 0.00316 µM, first compound 3.16 µM", "result": 89.3, "unit": "%"}, {"measurement": "viability, T/C", "setting": "second compound 0.00316 µM, first compound 10 µM", "result": 56.3, "unit": "%"}, {"measurement": "viability, T/C", "setting": "[3]", "result": 107, "unit": "%"}, {"measurement": "viability, T/C", "setting": "[4]", "result": 134, "unit": "%"}, {"measurement": "viability, T/C", "setting": "second compound 0.01 µM, first compound 0.316 µM", "result": 84.8, "unit": "%"}, {"measurement": "viability, T/C", "setting": "second compound 0.01 µM, first compound 1 µM", "result": 130, "unit": "%"}, {"measurement": "viability, T/C", "setting": "second compound 0.01 µM, first compound 3.16 µM", "result": 82.9, "unit": "%"}, {"measurement": "viability, T/C", "setting": "second compound 0.01 µM, first compound 10 µM", "result": 60.2, "unit": "%"}, {"measurement": "viability, T/C", "setting": "[5]", "result": 101, "unit": "%"}, {"measurement": "viability, T/C", "setting": "[6]", "result": 138, "unit": "%"}, {"measurement": "viability, T/C", "setting": "second compound 0.0316 µM, first compound 0.316 µM", "result": 92.8, "unit": "%"}, {"measurement": "viability, T/C", "setting": "second compound 0.0316 µM, first compound 1 µM", "result": 129, "unit": "%"}, {"measurement": "viability, T/C", "setting": "second compound 0.0316 µM, first compound 3.16 µM", "result": 80.7, "unit": "%"}, {"measurement": "viability, T/C", "setting": "second compound 0.0316 µM, first compound 10 µM", "result": 53.2, "unit": "%"}, {"measurement": "viability, T/C", "setting": "[7]", "result": 144, "unit": "%"}, {"measurement": "viability, T/C", "setting": "[8]", "result": 132, "unit": "%"}, {"measurement": "viability, T/C", "setting": "second compound 0.1 µM, first compound 0.316 µM", "result": 112, "unit": "%"}, {"measurement": "viability, T/C", "setting": "second compound 0.1 µM, first compound 1 µM", "result": 86.5, "unit": "%"}, {"measurement": "viability, T/C", "setting": "second compound 0.1 µM, first compound 3.16 µM", "result": 73.1, "unit": "%"}, {"measurement": "viability, T/C", "setting": "second compound 0.1 µM, first compound 10 µM", "result": 54.8, "unit": "%"}, {"measurement": "viability, T/C", "setting": "[9]", "result": 164, "unit": "%"}, {"measurement": "viability, T/C", "setting": "[10]", "result": 179, "unit": "%"}, {"measurement": "viability, T/C", "setting": "second compound 0.316 µM, first compound 0.316 µM", "result": 96, "unit": "%"}, {"measurement": "viability, T/C", "setting": "second compound 0.316 µM, first compound 1 µM", "result": 96.2, "unit": "%"}, {"measurement": "viability, T/C", "setting": "second compound 0.316 µM, first compound 3.16 µM", "result": 79.5, "unit": "%"}, {"measurement": "viability, T/C", "setting": "second compound 0.316 µM, first compound 10 µM", "result": 57.1, "unit": "%"}, {"measurement": "viability, T/C", "setting": "[11]", "result": 198, "unit": "%"}, {"measurement": "viability, T/C", "setting": "[12]", "result": 93.3, "unit": "%"}, {"measurement": "viability, T/C", "setting": "second compound 1 µM, first compound 0.316 µM", "result": 88.5, "unit": "%"}, {"measurement": "viability, T/C", "setting": "second compound 1 µM, first compound 1 µM", "result": 76.5, "unit": "%"}, {"measurement": "viability, T/C", "setting": "second compound 1 µM, first compound 3.16 µM", "result": 74.2, "unit": "%"}, {"measurement": "viability, T/C", "setting": "second compound 1 µM, first compound 10 µM", "result": 56.6, "unit": "%"}]}]}
